Measurements from patent US7468384B2, “Microbicidal composition” (Rohm and Haas Company, priority 2004, dated 2008).
Like-named read-outs stand apart in the source and are kept apart here.

How the values were obtained:
Type in all cases: cell-based
[1] = system: Pseudomonas aeruginosa (P. aeruginosa—ATCC #15442); assay: Synergy test, microtiter plate high resolution MIC assay, bacterium; parameters: key to SI (calculated synergy index) / SI (synergy index): SI = Qa/QA + Qb/QB (mixture vs. alone end-point concentrations); settings: P. aeruginosa 15442, M9GY; for Qb: alone or mixed with BIT; for MIC: Pseudomonas aeruginosa
Source text: (§1) One measure of synergism is the industrially accepted method described by Kull, F. C.; Eisman, P. C.; Sylwestrowicz, H. D. and Mayer, R. L., in Applied Microbiology 9:538-541 (1961), using the ratio determined by the formula: Qa/QA+Qb/QB=Synergy Index (“SI”) wherein: • QA=concentration of compound A (first component) in ppm, acting alone, which produced an end point (MIC of Compound A). • Qa=concentration of compound A in ppm, in the mixture, which produced an end point. • QB=concentration of compound B (second component) in ppm, acting alone, which produced an end point (MIC of Compound B). • Qb=concentration of compound B in ppm, in the mixture, which produced an end point.
(§2) When the sum of Qa/QA and Qb/QB is greater than one, antagonism is indicated. […] The lower the SI, the greater the synergy shown by that particular mixture. The minimum inhibitory concentration (MIC) of a microbicide is the lowest concentration tested under a specific set of conditions that prevents the growth of added microorganisms.
(§3) Synergy tests were conducted using standard microtiter plate assays with media designed for optimal growth of the test microorganism. Soybean Casein Digest Broth (Tryptic Soy Broth, TSB medium) or minimal salt medium supplemented with 0.2% glucose and 0.1% yeast extract (M9GY medium) was used for testing bacteria; Potato Dextrose Broth (PDB medium) was used for testing yeast and mold. In this method, a wide range of combinations of microbicides was tested by conducting high resolution MIC assays in the presence of various concentrations of MI. High resolution MICs were determined by adding varying amounts of microbicide to one column of a microtitre plate and doing subsequent ten-fold dilutions using an automated liquid handling system to obtain a series of endpoints ranging from 2 ppm to 10,000 ppm active ingredient.
(§4) For MI combinations, the synergy of the combinations of the present invention was determined against two bacteria, Escherichia coli (E. coli—ATCC #8739) or Pseudomonas aeruginosa (P. aeruginosa—ATCC #15442), a yeast, Candida albicans (C. albicans—ATCC 10231), and a mold, Aspergillus niger (A. niger—ATCC 16404). The bacteria were used at a concentration of about 5×10^6 bacteria per mL and the yeast and mold at 5×10^5 fungi per mL. These microorganisms are representative of natural contaminants in many consumer and industrial applications. […] (bacteria).
(§5) For BIT combinations, the synergy of the combinations of the present invention was determined against a bacterium, Pseudomonas aeruginosa (P. aeruginosa—ATCC #15442), a yeast, Candida albicans (C. albicans—ATCC 10231), and a mold, Aspergillus niger (A. niger—ATCC 16404). The bacteria were used at a concentration of about 5×10^6 bacteria per mL and the yeast and mold at 5×10^5 fungi per mL. These microorganisms are representative of natural contaminants in many consumer and industrial applications. […] (yeast and mold) or 30° C. (bacteria).

[2] = system: Aspergillus niger (A. niger—ATCC 16404); assay: Synergy test, microtiter plate high resolution MIC assay, mold; parameters: key to SI (calculated synergy index) / SI (synergy index): SI = Qa/QA + Qb/QB (mixture vs. alone end-point concentrations); settings: for MIC: Aspergillus niger
Source text: as §1, §2, §3, §4, §5

[3] = system: Candida albicans (C. albicans—ATCC 10231); assay: Synergy test, microtiter plate high resolution MIC assay, yeast; settings: C. albicans 10231, PDB; for Qb: alone or mixed with BIT; for Qb / SI: 24 hours
Source text: as §1, §2, §3, §4, §5

[4] = system: Escherichia coli (E. coli—ATCC #8739); assay: Synergy test, microtiter plate high resolution MIC assay, bacterium; settings: E. coli 8739, M9GY; for Qb: alone or mixed with BIT
Source text: as §1, §2
as §3, with “In this method, a wide range of combinations of microbicides was tested by conducting high resolution MIC assays in the presence of various concentrations of MI.” left out
as §4

[5] = diazolidinyl urea concentration giving end point (MIC), 48 hours
[6] = synergy index BIT + diazolidinyl urea, 48 hours
[7] = Imidalozidinyl urea concentration giving end point (MIC), 48 hours
[8] = synergy index BIT + Imidalozidinyl urea, 48 hours
[9] = caprylyl glycol concentration giving end point (MIC), 24 hours
[10] = synergy index BIT + caprylyl glycol, 24 hours

zinc pyrithione was tested, and the “SI (synergy index)” value ([1]; Table 28, 48 hours) was 1.00, the “Qb (second component at end point, MIC)” value ([1]; Table 28, zinc pyrithione with BIT, 48 hours, alone where Qa = 0) was 80 ppm and the “SI (synergy index)” value ([2]; Table 28, A. niger 16404, PDB, 1 week) was 1.00. The “Qb (second component at end point, MIC)” value ([2]; Table 28, zinc pyrithione with BIT, A. niger 16404, PDB, 1 week, alone where Qa = 0) was 8 ppm.

COC(=O)c1ccc(O)cc1 [methylparaben] showed a Qb ([1]; methylparaben concentration giving end point (MIC), 48 hours) of 3000 ppm, an SI ([1]; synergy index BIT + methylparaben, 48 hours) of 1.00 and an MIC ([2]; ATCC16404, 96 h, read-out: Qb) of 800 µg/mL. The SI ([2]; synergy index BIT + methylparaben, A. niger 16404, PDB, 4 days) was 1.00.

For O=C(NCO)N(CO)C1(CO)C(=O)NC(=O)N1CO (stereo not shown) [Diazolidinyl urea], the Qb [1, 5] was 80 ppm, the SI [1, 6] was 1.00 and the Qb ([3]; diazolidinyl urea concentration giving end point (MIC)) was 2000 ppm. The SI ([3]; synergy index BIT + diazolidinyl urea) was 1.00, the MIC ([2]; ATCC16404, 72 h, diazolidinyl urea concentration giving end point (MIC), alone or mixed with BIT, A. niger 16404, PDB, 3 days, read-out: Qb) was 1000 µg/mL and the SI ([2]; synergy index BIT + diazolidinyl urea, A. niger 16404, PDB, 3 days) was 1.00. The Qb [4, 5] was 100 ppm and the SI [4, 6] was 1.00.

For “imidazolidinyl urea [Imidalozidinyl urea]”, the Qb [1, 7] was 400 ppm, the SI [1, 8] was 1.00 and the Qb ([3]; Imidalozidinyl urea concentration giving end point (MIC)) was 10000 ppm. The SI ([3]; synergy index BIT + Imidalozidinyl urea) was 1.00, the Qb ([2]; Imidalozidinyl urea concentration giving end point (MIC), alone or mixed with BIT, A. niger 16404, PDB, 3 days) was 8000 ppm and the SI ([2]; synergy index BIT + Imidalozidinyl urea, A. niger 16404, PDB, 3 days) was 1.00. The Qb [4, 7] was 400 ppm and the SI [4, 8] was 1.00.

CCCOC(=O)c1ccc(O)cc1 [propylparaben] was tested, and the MIC ([1]; ATCC15442, Table 23, propylparaben with BIT, 24 hours, alone where Qa = 0, read-out: Qb (second component at end point, MIC)) was 10000 µg/mL, the “SI (synergy index)” value ([1]; Table 23, 24 hours) was 1.00 and the MIC ([2]; ATCC16404, 72 h, Table 23, propylparaben with BIT, A. niger 16404, PDB, 3 days, alone where Qa = 0, read-out: Qb (second component at end point, MIC)) was 1000 µg/mL. For the same compound, the “SI (synergy index)” value ([2]; Table 23, A. niger 16404, PDB, 3 days) was 1.00.

For CCCCCCC(O)CO (stereo not shown) [Caprylyl glycol], the “MIC of component acting alone (QA / QB)” value ([1]; 48 hours) was 3000 ppm, the Qb [1, 9] was 3000 ppm and the SI [1, 10] was 1.00. The “MIC of component acting alone (QA / QB)” value ([3]; 48 hours) was 2000 ppm, the Qb ([3]; caprylyl glycol concentration giving end point (MIC)) was 2000 ppm and the SI ([3]; synergy index BIT + caprylyl glycol) was 1.00. For the same compound, the “MIC of component acting alone (QA / QB)” value ([2]; A. niger 16404, PDB, 1 week) was 3000 ppm, the Qb ([2]; caprylyl glycol concentration giving end point (MIC), alone or mixed with BIT, A. niger 16404, PDB, 1 week) was 2000 ppm and the SI ([2]; synergy index BIT + caprylyl glycol, A. niger 16404, PDB, 1 week) was 1.00. The “MIC of component acting alone (QA / QB)” value ([4]; 24 hours) was 2000 ppm, the Qb [4, 9] was 2000 ppm and the SI [4, 10] was 1.00.

Work on O=C(O)CN(CCN(CC(=O)O)CC(=O)O)CC(=O)O [EDTA, ethylenediamine tetraacetic acid] yielded an MIC ([2]; ATCC16404, 96 h, read-out: Qb) of 2000 µg/mL and an SI ([2]; synergy index BIT + EDTA, A. niger 16404, PDB, 4 days) of 1.00.

In the case of CCOC(=O)c1ccc(O)cc1 [ethylparaben], the Qb ([1]; ethylparaben concentration giving end point (MIC), 48 hours) is reported as 3000 ppm, the SI ([1]; synergy index BIT + ethylparaben, 48 hours) is reported as 1.00 and the MIC ([2]; ATCC16404, 72 h, ethylparaben concentration giving end point (MIC), alone or mixed with BIT, A. niger 16404, PDB, 3 days, read-out: Qb) is reported as 2000 µg/mL. The SI ([2]; synergy index BIT + ethylparaben, A. niger 16404, PDB, 3 days) was 1.00.

For CNC(=O)c1ccccc1SSc1ccccc1C(=O)NC [2,2′-dithiobis(N-methylbenzamide)], the Qb ([1]; 2,2′-dithiobis(N-methylbenzamide) concentration giving end point (MIC), 48 hours) was 200 ppm, the SI ([1]; synergy index BIT + 2,2′-dithiobis(N-methylbenzamide), 48 hours) was 1.00 and the MIC ([2]; ATCC16404, 72 h, 2,2′-dithiobis(N-methylbenzamide) concentration giving end point (MIC), alone or mixed with BIT, A. niger 16404, PDB, 3 days, read-out: Qb) was 1000 µg/mL. For the same compound, the SI ([2]; synergy index BIT + 2,2′-dithiobis(N-methylbenzamide), A. niger 16404, PDB, 3 days) was 1.00.

With Benzalkonium chloride the “SI (calculated synergy index)” value ([1]; Table 8, 48 hours) was 1.00, the “Qb: end-point activity (MIC) of second component in the mixture (alone, QB, where Qa = 0)” value ([1]; Table 8, 48 hours, B = Benzalkonium chloride) was 40 ppm and the “SI (calculated synergy index)” value ([2]; Table 8, A. niger 16404, PDB, 1 week) was 1.00. The “Qb: end-point activity (MIC) of second component in the mixture (alone, QB, where Qa = 0)” value ([2]; Table 8, A. niger 16404, PDB, 1 week, B = Benzalkonium chloride) was 200 ppm.

With O=C([O-])CNCO.[Na+] [Sodium hydroxymethylglycinate] the MIC ([1]; ATCC15442, 24 h, read-out: Qb (second component at end point, MIC), Table 27, Sodium hydroxymethylglycinate with BIT, 24 hours, alone where Qa = 0) was 2000 µg/mL, the “SI (synergy index)” value ([1]; Table 27, 24 hours) was 1.00 and the MIC ([2]; ATCC16404, 72 h, read-out: Qb (second component at end point, MIC)) was 600 µg/mL. The “SI (synergy index)” value ([2]; Table 27, A. niger 16404, PDB, 3 days) was 1.00.
